Assay results reported in PMC9017309, “Triazolopyrimidines Target Aerobic Respiration in Mycobacterium tuberculosis” (Antimicrobial Agents and Chemotherapy, 2022).
≈ marks a conversion by molar mass, not a printed value.

Key:
[1] = test system: M. tuberculosis H37Rv-LP (ATCC 25618); test: MIC in liquid medium, parental strain; format: cell-based; conditions: Mycobacterium tuberculosis, 120 h, n in brackets
human HepG2 cells = conditions: read-out: IC50 HepG2, Glucose; concentration reducing cell number by 50%, 3 days exposure, glucose as carbon source; cited from earlier work
in vitro = conditions: human
[2] = test system: M. tuberculosis H37Rv ATCC 27294; test: microbe, parasite or virus in culture; format: cell-based; conditions: Mycobacterium tuberculosis, 120 h; 5 days; read-out: MIC, H37Rv ATCC 27294 Parental
[3] = test system: M. tuberculosis in human THP-1 macrophages; test: Activity against intracellular M. tuberculosis in THP-1 macrophages; format: cell-based; conditions: Mycobacterium tuberculosis, THP-1, 72 h, unit inferred, μM
[4] = test system: M. tuberculosis H37Rv-LP (ATCC 25618); test: microbe, parasite or virus in culture; format: cell-based; conditions: Mycobacterium tuberculosis, 504 h, 24-well agar plates, 3 weeks, read-out: MIC on solid medium, H37Rv-LP
M. tuberculosis = format: cell-based, Mycobacterium tuberculosis; conditions: normalized to DMSO control

Compound | MIC [1] [µM] | IC50 (human HepG2 cells) [µM] | IC50 (in vitro) [µM] | MIC [2] [µM] | IC50 [3] [µM] | MIC [4] [µM] | Effect on intracellular ATP levels (M. tuberculosis)
Cc1ccc(CCNc2cc(-c3ccccc3)nc3ncnn23)cc1 [TPN-0006245] | 2 ± 1.1 (≈ 0.659 µg/mL) | 58 | 39 | – | – | – | –
FC(F)(F)c1ccc(CCNc2cc(-c3ccccc3)nc3ncnn23)cc1 [TPN-0006243] | 3.7 ± 2.9 (≈ 1.42 µg/mL) | > 100 | > 100 | 2.2 ± 0.9 (≈ 0.843 µg/mL) | – | – | –
CCc1ccc(CCNc2cc(-c3ccccn3)nc3ncnn23)cc1 [TPN-0006288] | – | 44 | 23 | – | 0.076 ± 0.032 | – | –
Clc1ccc(CCNc2cc(-c3ccccn3)nc3ncnn23)cc1 [TPN-0006273] | – | 100 | 76 | – | 0.19 ± 0.13 | – | –
COc1ccc(CCNc2cc(-c3ccccc3)nc3ncnn23)cc1 [TPN-0006218] | 2.6 ± 1.3 (≈ 0.898 µg/mL) | > 100 | 65 | – | 0.23 ± 0.08 | – | –
COc1ccc(CCNc2cc(-c3ccccn3)nc3ncnn23)cc1 [TPN-0006239] | 1.1 ± 0.5 (≈ 0.381 µg/mL) | > 100 | 73 | 9.5 ± 3.5 (≈ 3.29 µg/mL) | – | 1.6 (≈ 0.554 µg/mL) | –
NC[C@H]1O[C@H](O[C@H]2[C@H](O)[C@@H](O[C@H]3O[C@H](CO)[C@@H](O)[C@H](N)[C@H]3O)[C@H](N)C[C@@H]2N)[C@H](O)[C@@H](O)[C@@H]1O [kanamycin] | – | – | – | – | – | – | Depletion of ATP was not seen
CCc1ccc(CCNc2cc(-c3ccccc3)nc3ncnn23)cc1 [TPN-0006290] | – | 49 | 33 | – | 0.18 ± 0.09 | – | –
CCc1nc2ccc(Cl)cn2c1C(=O)NCc1ccc(N2CCC(c3ccc(OC(F)(F)F)cc3)CC2)cc1 [Molecule Q203, Q203] | – | – | – | – | – | – | depletion of ATP levels at concentrations lower than the MIC
FC(F)(F)c1ccc(CCNc2cc(-c3ccccn3)nc3ncnn23)cc1 [TPN-0006267] | 1.4 ± 1.4 (≈ 0.538 µg/mL) | > 100 | > 100 | – | 0.21 ± 0.11 | 1.6 (≈ 0.615 µg/mL) | –
